{"source": "paper PMC7156724", "about": "“Potent BRD4 inhibitor suppresses cancer cell-macrophage interaction” (Nature Communications, 2020)", "key": {"[1]": {"tested_on": "TAMs", "experiment": "Transwell 3D co-culture of pretreated A2780 cells and TAMs, spheroid volume", "assay_type": "cell-based, mouse", "procedure": "A2780 tumor cells were pretreated with 100 nM NHWD-870 and then directly co-cultured with TAMs (A2780:TAMs ratio as 4:1) at the density of 1 × 10^5 total cells in a 12-well. Shown are immunofluorescent staining of Ki67 and CD68 (a) and quantification of Ki67+ and CD68− or CD68+ cells (b). Scale bar is 50 μm. […] A2780 cells (pre-treated with or without 100 nM NHWD-870 for 48 h) were seeded into the top chamber (transwell size: 0.4 μm) and TAMs (Mac, 40,000 cells per 24-well) in medium containing 2% matrigel were seeded into the bottom chamber pre-coated with Matrigel. No NHWD-870 was added to the co-culture. The upper chamber without A2780 cells was used as a control. Shown are schematics of transwell co-culture experiment (c), representative pictures of TAM spheroid (d: black/white), and quantification of spheroid volumes (e). Scale bar is 50 μm. […] Data are presented as mean ± SEM from three independent experiments. g CSF1 protein levels in supernatant of 10^6 ID8, B16, A2780, SKOV3, and A375 cells treated with DMSO or 25 nM NHWD-870 for 24 h, as measured by ELISA. […] Scale bar is 20 μm. i Quantification of CSF1 staining in DMSO or 100 nM NHWD-870 treated A2780 cells. […] Shown are representative immunofluorescent staining of CSF1 (green) and CD68 (red) (j) and quantification of CSF1 staining (k). […]"}, "[2]": {"tested_on": "HIF1A mRNA", "experiment": "RT-qPCR of HIF1A in A375 or A2780 cells", "assay_type": "cell-based, human", "procedure": "Fig. 7 NHWD-870 inhibited CSF1 expression through suppressing BRD4 and HIF1α in tumor cells. a, b Representative western blot analysis of control (Ctrl) and BRD4 knockout (KO) A375 and A2780 cells exposed to 20% or 1% O2 for 24 hours. Selected from three independent experiments. c, d Representative western blot analysis of A375 and A2780 cells treated with DMSO or 25 nM NHWD-870 and exposed to 20% or 1% O2 for 24 h. Selected from three independent experiments. e Relative HIF1 luciferase reporter activity in control (Ctrl), BRD4 knockout (KO), or NHWD-870 treated A375 and A2780 cells exposed to 20% or 1% O2 for 24 h. Data are presented as mean ± SEM from three independent experiments. f RT-qPCR analyses of CSF1 in control (Ctrl), BRD4 knockout (KO), or NHWD-870 treated A375 and A2780 cells exposed to 20% or 1% O2 for 24 hours. Data are presented as mean ± SEM from three independent experiments. g RT-qPCR analyses of HIF1A in A375 or A2780 cells treated with 15 nM NHWD-870 or DMSO control for 24 h. Data are presented as mean ± SEM from three independent experiments. h Genome browser view of BRD4 ChIP-seq peaks on the HIF1A promoter. […] NHWD-870 inhibits the proliferation and survival of TAMs partly by inhibiting BRD4 activity, HIF1α expression, and CSF1 secretion by tumor cells, and downregulating CSF1R mediated ERK and PI3K/AKT signaling in TAMs. p values were calculated using two-tailed, unpaired t tests in this figure. *p < 0.05; **p < 0.01; ***p < 0.001. […]\nTotal RNA was extracted with RNeasy plus mini kit (Qiagen), and then cDNA was synthesized by iScript™ cDNA Synthesis Kit (Bio-Rad). qPCR was performed using a CFX96 Real-time PCR Instrument (BioRad). Data were collected using CFX Manager version 3.1.1517.823 and analyzed using Microsoft Excel 2010. Relative expression levels were determined by normalization to human GAPDH using the ∆∆Ct method. […]"}, "[3]": {"molecular_target": "T1, BRD4 (BD1+BD2) (Homo sapiens, UniProt O60885)", "T1 construct": "purchased BPS 32612", "experiment": "BRD4 (BD1+BD2) TR-FRET binding assay", "conditions": "for Biochemical activity against BRD4 (BD1 + BD2): Fig.1d, replicates", "source_text": "2. BRD4 binding assay. The inhibitory effects of NHWD-530, NHWD-540, NHWD- […]\n(BPS, Cat # 32612) per manufacturer’s instructions. […]"}}, "note": "Where “and” joins values, the source holds several entries; their conditions need not be identical. Equal entries are not always repeated."}
{"smiles": "Cc1nnn(C)c1-c1cnc2c3c4cnn(C)c4ccc3n([C@H](c3ccccc3)C3CCOCC3)c2c1", "note": "[NHWD-870]", "values": [{"measurement": "fold decrease of the growth of TAMs", "setting": "[1]; 100 nM, 3-D culture, Fig 5c-e", "result": "about 8 fold"}, {"measurement": "ability of A2780 to support the growth of TAMs", "setting": "[1]; A2780 pretreated with 100 nM, 3D co-culture", "result": "completely abolished the ability of A2780 to support the growth of TAMs"}, {"measurement": "HIF1A mRNA levels", "setting": "[2]; 15 nM, 24 h, A375 or A2780 cells", "result": "decreased HIF1A mRNA levels"}, {"measurement": "HIF1A mRNA, relative to DMSO (Fig.7g)", "setting": "[2]; A375", "result": "0.3638 and 0.3259 and 0.3497"}, {"measurement": "HIF1A mRNA, relative to DMSO (Fig.7g)", "setting": "[2]; A2780", "result": "0.269 and 0.2453 and 0.2176"}, {"measurement": "Biochemical activity against BRD4 (BD1 + BD2)", "setting": "[3]; concentration(nM) 0.0021442", "result": "0.8628 and 1.4579"}, {"measurement": "Biochemical activity against BRD4 (BD1 + BD2)", "setting": "[3]; concentration(nM) 0.061236", "result": "16.5754 and 12.5588"}, {"measurement": "Biochemical activity against BRD4 (BD1 + BD2)", "setting": "[3]; concentration(nM) 0.103", "result": "20.2946 and 25.6828"}, {"measurement": "Biochemical activity against BRD4 (BD1 + BD2)", "setting": "[3]; concentration(nM) 0.59176", "result": "60.3038 and 63.4692"}, {"measurement": "Biochemical activity against BRD4 (BD1 + BD2)", "setting": "[3]; concentration(nM) 1.19382", "result": "79.3053 and 83.6424"}, {"measurement": "Biochemical activity against BRD4 (BD1 + BD2)", "setting": "[3]; concentration(nM) 1.79588", "result": "95.9066 and 95.1156"}, {"measurement": "Biochemical activity against BRD4 (BD1 + BD2)", "setting": "[3]; concentration(nM) 2.39794", "result": "100.74 and 99.5542"}, {"measurement": "Biochemical activity against BRD4 (BD1 + BD2)", "setting": "[3]; concentration(nM) 3", "result": "101.339 and 101.804"}, {"measurement": "IC50", "setting": "[3]; average IC50, nM, read-out: IC50, biochemical activity against BRD4 (BD1 + BD2)", "result": "2.7 nM and 2.72 nM"}]}
